Test results as given in US20240166635A1, “AMINOHETEROARYL KINASE INHIBITORS” (Anrui Biomedical Technology (Guangzhou) Co.,Ltd., priority 2020, published 2024).

What was measured:
Type in all cases: biochemical
[1] = biological target: CDK6/CyclinD1 (Homo sapiens (Human), UniProt Q00534); assay: CDK6/CyclinD1 kinase inhibitory activity (Caliper mobility shift); details: read-out: CDK6/Cyclin D1 IC50
[2] = biological target: CDK4/Cyclin D1 (Homo sapiens (Human), UniProt P11802); assay: CDK4/CyclinD1 kinase inhibitory activity (Caliper mobility shift)
Chain of CDK4/Cyclin D1 (P11802 whole entry): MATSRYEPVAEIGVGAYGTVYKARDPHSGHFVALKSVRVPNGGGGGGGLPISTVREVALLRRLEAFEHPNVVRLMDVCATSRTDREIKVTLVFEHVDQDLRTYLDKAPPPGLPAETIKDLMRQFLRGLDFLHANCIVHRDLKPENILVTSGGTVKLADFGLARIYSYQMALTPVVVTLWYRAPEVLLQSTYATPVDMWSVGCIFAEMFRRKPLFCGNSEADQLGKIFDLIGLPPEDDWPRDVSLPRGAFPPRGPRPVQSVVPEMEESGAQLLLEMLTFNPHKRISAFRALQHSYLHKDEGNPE
Chain of CDK4/Cyclin D1 (P24385 whole entry partner): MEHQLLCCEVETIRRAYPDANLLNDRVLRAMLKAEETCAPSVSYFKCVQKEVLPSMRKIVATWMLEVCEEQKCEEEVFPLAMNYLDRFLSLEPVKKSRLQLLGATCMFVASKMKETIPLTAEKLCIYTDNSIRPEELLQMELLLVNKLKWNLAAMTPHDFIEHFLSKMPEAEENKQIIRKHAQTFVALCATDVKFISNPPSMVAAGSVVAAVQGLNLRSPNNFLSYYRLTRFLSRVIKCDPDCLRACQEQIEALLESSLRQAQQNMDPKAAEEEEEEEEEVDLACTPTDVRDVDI

[3] = biological target: CDK7/CyclinH/MAT1 (Homo sapiens (Human), UniProt P50613); assay: CDK7/CyclinH/MAT1 kinase inhibitory activity (Caliper mobility shift)
Chain of CDK7/CyclinH/MAT1 (P50613 whole entry): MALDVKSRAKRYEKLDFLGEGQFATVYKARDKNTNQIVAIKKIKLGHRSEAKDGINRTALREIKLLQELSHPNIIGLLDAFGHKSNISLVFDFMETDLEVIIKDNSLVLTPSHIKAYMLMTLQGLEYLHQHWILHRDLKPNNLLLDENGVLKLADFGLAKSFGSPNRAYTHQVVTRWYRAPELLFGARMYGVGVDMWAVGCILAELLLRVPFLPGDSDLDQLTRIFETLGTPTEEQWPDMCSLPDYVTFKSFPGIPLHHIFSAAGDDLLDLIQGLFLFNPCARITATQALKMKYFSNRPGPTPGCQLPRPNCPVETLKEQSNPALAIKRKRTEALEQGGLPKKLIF
Chain of CDK7/CyclinH/MAT1 (P51946 whole entry partner): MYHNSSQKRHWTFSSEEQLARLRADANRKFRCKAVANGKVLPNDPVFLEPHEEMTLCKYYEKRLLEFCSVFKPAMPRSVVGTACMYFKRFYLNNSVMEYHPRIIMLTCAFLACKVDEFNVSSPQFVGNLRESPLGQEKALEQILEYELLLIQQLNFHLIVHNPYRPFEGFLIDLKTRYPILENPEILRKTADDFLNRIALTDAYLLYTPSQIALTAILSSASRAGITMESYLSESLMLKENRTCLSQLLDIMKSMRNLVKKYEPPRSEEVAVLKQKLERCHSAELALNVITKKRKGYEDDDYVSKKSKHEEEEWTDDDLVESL
Chain of CDK7/CyclinH/MAT1 (P51948 whole entry partner): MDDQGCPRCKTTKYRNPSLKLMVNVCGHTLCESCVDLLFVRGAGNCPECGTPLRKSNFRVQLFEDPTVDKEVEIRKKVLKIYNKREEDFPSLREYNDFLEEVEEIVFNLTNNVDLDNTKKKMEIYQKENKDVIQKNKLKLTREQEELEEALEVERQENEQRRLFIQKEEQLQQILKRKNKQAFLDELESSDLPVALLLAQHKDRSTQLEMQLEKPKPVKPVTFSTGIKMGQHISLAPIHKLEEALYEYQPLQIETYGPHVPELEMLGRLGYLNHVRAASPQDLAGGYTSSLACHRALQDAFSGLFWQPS

[4] = biological target: CDK2/CyclinE1 (Homo sapiens (Human), UniProt P24941); assay: CDK2/CyclinE1 kinase inhibitory activity (Caliper mobility shift); details: read-out: CDK2/Cyclin El IC50
[5] = biological target: CDK9/CyclinT1 (Homo sapiens (Human), UniProt P50750); assay: CDK9/CyclinT1 kinase inhibitory activity (Caliper mobility shift); details: read-out: CDK9/Cyclin T1 IC50
Chain of CDK9/CyclinT1 (P50750 whole entry): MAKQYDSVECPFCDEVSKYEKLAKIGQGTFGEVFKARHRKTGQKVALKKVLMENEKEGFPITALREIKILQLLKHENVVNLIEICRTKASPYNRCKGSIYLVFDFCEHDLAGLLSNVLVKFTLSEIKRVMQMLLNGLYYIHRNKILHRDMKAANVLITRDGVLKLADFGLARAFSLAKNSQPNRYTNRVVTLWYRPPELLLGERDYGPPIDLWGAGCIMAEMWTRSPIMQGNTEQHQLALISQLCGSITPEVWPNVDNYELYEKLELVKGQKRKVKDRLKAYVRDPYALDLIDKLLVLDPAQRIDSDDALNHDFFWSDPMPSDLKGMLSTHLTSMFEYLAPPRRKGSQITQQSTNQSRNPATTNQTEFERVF
Chain of CDK9/CyclinT1 (O60563 whole entry partner): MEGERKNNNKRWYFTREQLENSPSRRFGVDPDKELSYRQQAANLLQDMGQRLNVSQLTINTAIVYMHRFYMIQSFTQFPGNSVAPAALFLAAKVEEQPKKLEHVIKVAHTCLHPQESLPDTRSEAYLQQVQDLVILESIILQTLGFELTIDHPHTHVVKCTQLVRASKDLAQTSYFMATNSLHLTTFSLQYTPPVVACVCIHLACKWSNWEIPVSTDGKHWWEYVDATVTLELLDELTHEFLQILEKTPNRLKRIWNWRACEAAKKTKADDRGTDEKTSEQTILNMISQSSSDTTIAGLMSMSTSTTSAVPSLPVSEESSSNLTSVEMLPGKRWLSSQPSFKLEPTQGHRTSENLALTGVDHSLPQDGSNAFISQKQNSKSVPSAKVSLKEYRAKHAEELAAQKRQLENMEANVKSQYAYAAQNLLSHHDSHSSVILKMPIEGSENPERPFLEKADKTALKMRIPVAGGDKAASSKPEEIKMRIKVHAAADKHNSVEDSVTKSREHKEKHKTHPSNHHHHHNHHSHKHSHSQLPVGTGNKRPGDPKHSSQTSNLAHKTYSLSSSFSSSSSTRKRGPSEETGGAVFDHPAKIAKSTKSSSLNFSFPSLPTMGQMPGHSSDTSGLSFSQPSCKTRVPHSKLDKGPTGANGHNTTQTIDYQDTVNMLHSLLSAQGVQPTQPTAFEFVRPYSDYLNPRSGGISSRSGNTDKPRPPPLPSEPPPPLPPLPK

[6] = biological target: CDK1/CyclinB (Homo sapiens (Human), UniProt P06493); assay: CDK1/CyclinB kinase inhibitory activity (Caliper mobility shift); details: read-out: CDK1/Cyclin B1 IC50
Chain of CDK1/CyclinB (P06493 whole entry): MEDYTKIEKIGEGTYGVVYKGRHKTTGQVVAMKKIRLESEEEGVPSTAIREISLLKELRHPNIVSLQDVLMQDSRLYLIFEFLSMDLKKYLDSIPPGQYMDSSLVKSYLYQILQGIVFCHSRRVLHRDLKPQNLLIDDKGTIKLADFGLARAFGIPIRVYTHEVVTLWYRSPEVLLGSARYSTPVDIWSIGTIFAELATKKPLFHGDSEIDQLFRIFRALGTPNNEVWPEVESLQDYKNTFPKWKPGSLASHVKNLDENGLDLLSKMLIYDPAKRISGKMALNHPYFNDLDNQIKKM
Chain of CDK1/CyclinB (P14635 whole entry partner): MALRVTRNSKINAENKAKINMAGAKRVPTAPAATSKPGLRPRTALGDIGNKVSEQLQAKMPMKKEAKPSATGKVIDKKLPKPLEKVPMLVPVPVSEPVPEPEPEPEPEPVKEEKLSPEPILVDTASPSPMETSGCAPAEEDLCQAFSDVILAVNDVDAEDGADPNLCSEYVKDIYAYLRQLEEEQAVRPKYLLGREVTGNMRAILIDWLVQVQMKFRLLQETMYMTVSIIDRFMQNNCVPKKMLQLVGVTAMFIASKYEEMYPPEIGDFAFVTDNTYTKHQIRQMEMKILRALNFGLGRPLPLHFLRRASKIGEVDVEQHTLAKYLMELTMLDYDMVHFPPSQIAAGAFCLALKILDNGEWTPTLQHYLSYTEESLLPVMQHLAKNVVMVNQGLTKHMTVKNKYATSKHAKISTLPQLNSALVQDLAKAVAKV

Chain of CDK6/CyclinD1 (Q00534 whole entry): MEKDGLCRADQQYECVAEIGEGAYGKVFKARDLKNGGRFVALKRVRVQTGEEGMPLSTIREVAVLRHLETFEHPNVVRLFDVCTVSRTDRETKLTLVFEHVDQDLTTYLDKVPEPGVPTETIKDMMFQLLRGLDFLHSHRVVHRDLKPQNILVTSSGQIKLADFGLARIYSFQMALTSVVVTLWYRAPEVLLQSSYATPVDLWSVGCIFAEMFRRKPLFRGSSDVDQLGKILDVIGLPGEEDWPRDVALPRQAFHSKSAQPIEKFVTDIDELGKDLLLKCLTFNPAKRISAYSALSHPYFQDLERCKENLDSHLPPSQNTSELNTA
Chain of CDK6/CyclinD1 (P24385 whole entry partner): as the sequence (P24385 whole entry partner) above

Row | SMILES | IC50 [1] | IC50 [2] | IC50 [3] | IC50 [4] | IC50 [5] | IC50 [6]
1 | CC1(O)CCCC1Oc1nc(NC2CCN(S(=O)(=O)CC3CCOC3)CC2)ncc1C#N (single isomer, unassigned) [Example 40b] | 0.01 to 0.1 µM | 0.01 to 0.1 µM | ≥ 1 µM | 0.01 to 0.1 µM | – | –
2 | CC1(O)CCCC1Oc1nc(NC2CCN(S(=O)(=O)CC(F)(F)F)CC2)ncc1C#N (single isomer, unassigned) [Example 43b] | 0.01 to 0.1 µM | 0.01 to 0.1 µM | ≥ 1 µM | 0.01 to 0.1 µM | – | –
3 | CNS(=O)(=O)c1ccc(Nc2ncc(C(F)(F)F)c(OC3CCOCCC3O)n2)cc1 (single isomer, unassigned) [Example 102c, 4-((4-((5-hydroxyoxepan-4-yl)oxy)-5-(trifluoromethyl)pyrimidin-2-yl)amino)-N-(methyl-d3)benzenesulfonamide] | – | ≥ 1 µM | – | < 0.01 µM | – | –
4 | Cn1cnc(S(=O)(=O)N2CCC(Nc3ncc(C#N)c(OC4CCCC4(C)O)n3)CC2)c1 (single isomer, unassigned) [Example 50b] | 0.01 to 0.1 µM | 0.01 to 0.1 µM | ≥ 1 µM | < 0.01 µM | – | –
5 | Cn1cc(S(=O)(=O)N2CCC(Nc3ncc(C#N)c(O[C@@H]4CCC(F)(F)C[C@]4(C)O)n3)CC2)cn1 (relative stereo) [Example 7b, cis-4-((4,4-difluoro-2-hydroxy-2-methylcyclohexyl)oxy)-2-((1-((1-methyl-1H-pyrazol-4-yl)sulfonyl)piperidin-4-yl)amino)pyrimidine-5-carbonitrile] | 0.1 to 1 µM | 0.1 to 1 µM | ≥ 1 µM | 0.01 to 0.1 µM | – | –
6 | Cn1cc(S(=O)(=O)N2CCC(Nc3ncc(C#N)c(OC4CCCC4(C)O)n3)CC2)cn1 (single isomer, unassigned) [Example 48b] | 0.01 to 0.1 µM | 0.01 to 0.1 µM | – | < 0.01 µM | ≥ 1 µM | 0.01 to 0.1 µM
7 | CO[C@H]1C[C@](C)(COc2nc(NC3CCN(S(=O)(=O)c4cnn(C)c4)CC3)ncc2C#N)C1 [Example 64a] | 0.01 to 0.1 µM | 0.01 to 0.1 µM | 0.1 to 1 µM | < 0.01 µM | – | –
8 | CNS(=O)(=O)c1ccc(Nc2ncc(C(F)(F)F)c(OC3CCOCCC3O)n2)cc1 (single isomer, unassigned) [Example 102b, 4-((4-((5-hydroxyoxepan-4-yl)oxy)-5-(trifluoromethyl)pyrimidin-2-yl)amino)-N-(methyl-d3)benzenesulfonamide] | – | ≥ 1 µM | – | < 0.01 µM | – | –
9 | C[C@]1(O)COC[C@H]1Oc1nc(NC2CCN(S(C)(=O)=O)CC2)ncc1C(F)(F)F (relative stereo) [Example 104b, cis-3-methyl-4-((2-((1-(methylsulfonyl)piperidin-4-yl)amino)-5-(trifluoromethyl)pyrimidin-4-yl)oxy)tetrahydrofuran-3-ol] | 0.1 to 1 µM | 0.1 to 1 µM | – | 0.01 to 0.1 µM | ≥ 1 µM | 0.1 to 1 µM
10 | C[C@]1(O)CCC[C@H]1Oc1nc(NC2CCN(S(C)(=O)=O)CC2)ncc1C#N (relative stereo) [Example 5b, cis-4-((2-hydroxy-2-methylcyclopentyl-4,4-d2)oxy)-2-((1-(methylsulfonyl)piperidin-4-yl)amino)pyrimidine-5-carbonitrile] | 0.01 to 0.1 µM | 0.1 to 1 µM | – | 0.01 to 0.1 µM | ≥ 1 µM | 0.1 to 1 µM
11 | Cn1cnc(S(=O)(=O)N2CCC(Nc3ncc(C#N)c(OC4CCCC4(C)O)n3)CC2)n1 (single isomer, unassigned) [Example 51b] | 0.1 to 1 µM | 0.1 to 1 µM | ≥ 1 µM | 0.01 to 0.1 µM | – | –
12 | CC1(O)CCCC1Oc1nc(NC2CCN(S(=O)(=O)C(F)(F)F)CC2)ncc1C#N (single isomer, unassigned) [Example 42a] | 0.01 to 0.1 µM | 0.01 to 0.1 µM | 0.1 to 1 µM | < 0.01 µM | – | –
13 | CC1(O)CCC(F)(F)CC1Oc1nc(NC2CCN(S(C)(=O)=O)CC2)ncc1C#N (single isomer, unassigned) [Example 46a] | 0.1 to 1 µM | 0.1 to 1 µM | – | 0.1 to 1 µM | – | –
14 | N#Cc1cnc(Nc2ccc(S(N)(=O)=O)cc2)nc1OCC1(CO)CCCC1 [Example 15] | 0.1 to 1 µM | – | 0.1 to 1 µM | < 0.01 µM | 0.1 to 1 µM | 0.01 to 0.1 µM
15 | Cn1cnc(S(=O)(=O)N2CCC(Nc3ncc(C#N)c(OC4CCCC4(C)O)n3)CC2)n1 (single isomer, unassigned) [Example 51a] | 0.01 to 0.1 µM | 0.01 to 0.1 µM | 0.1 to 1 µM | < 0.01 µM | – | –
16 | CC1(O)COCCC1Oc1nc(NC2CCN(S(C)(=O)=O)CC2)ncc1C#N (single isomer, unassigned) [Example 45b] | 0.1 to 1 µM | 0.1 to 1 µM | – | 0.1 to 1 µM | ≥ 1 µM | ≥ 1 µM
